Columns and labels:
[1] = Aqueous stability in HEPES and PBS buffer by UV–vis; type: physicochemical; settings: pH 7.40, 10 mM HEPES or PBS, several hours
Description: Prior to the biological assays, the aqueous stability of selected compounds (HL^4, 4, HL^8, and 8) was measured as a function of time by UV–vis spectrophotometry at pH = 7.40 in 10 mM HEPES in PBS and in blood serum diluted by factor 3 (dilutions were made in HEPES and in PBS as well). […] This process took several hours, and it was in all cases less pronounced in the PBS buffer than in the HEPES medium.
(§1) Aqueous stability of 4, 8, and HL^4 was investigated in phosphate-buffered saline (PBS) and 10 mM HEPES buffers and in three-times diluted blood serum (Sigma Aldrich, from human male AB plasma) at pH = 7.40. The concentration of the compounds was between 5 and 10 μM. Blood serum was filtered on a 1.25 μm polyethersulfone membrane syringe filter and diluted with 10 mM HEPES or PBS buffer.

[2] = Stability in diluted blood serum by UV–vis; type: in vitro ADME, human; settings: pH 7.40, diluted with HEPES or PBS
Description: Measurements with diluted serum show a more elaborate picture. […] The new band cannot be undoubtedly attributed to the liberation of ligand HL^8.
as §1

Colo320 cells = test: Apoptosis assay, Annexin-V-FITC/PI flow cytometry; settings: 3 h induction
Description: An apoptosis assay was performed by flow cytometry via the analysis of multidrug-resistant Colo320 cells stained with Annexin-V-FITC and propidium iodide (PI).
Colo320 cells were treated at the indicated concentration of the compounds. The dual parametric dot plots combining Annexin-V (FL1) and PI (FL3) fluorescence show the viable cell population in the lower left quadrant Annexin-V–/PI– (Q4), the early apoptotic cells in the lower right quadrant Annexin-V+/PI– (Q3), and the late apoptotic and necrotic cells in the upper right quadrant Annexin-V+/PI+ (Q2).
The assay was carried out for selected compounds using an Annexin V-FITC Apoptosis Detection Kit (cat. no. APOAF-50TST) from Sigma according to the manufacturer’s instructions. The concentration of the Colo320 cell suspension was adjusted to approximately 0.5 × 10^6 cells/mL in an RPMI 1640 medium, and the cell suspension was distributed in 1 mL of aliquots into a 24-well plate and then incubated overnight at 37 °C and 5% CO2. On the following day, the medium was removed and replaced by 1 mL of RPMI medium containing the compounds except the control samples. […] After the incubation period, the samples were washed with PBS and fresh RPMI 1640 medium was added to the samples. The cells were incubated overnight at 37 °C and 5% CO2. The next day, 200 μL of 0.25% Trypsin (Trypsin-Versen) was added to the samples until cells appeared detached followed by the addition of 400 μL of RPMI 1640 medium supplemented with 10% bovine serum. The cells were collected in Eppendorf tubes and centrifuged at 2000g for 2 min. The harvested cells were resuspended in fresh serum-free RPMI 1640 culture medium. After this step, the apoptosis assay was carried out according to the instructions of the manufacturer. The fluorescence was analyzed immediately using a ParTec CyFlow flow cytometer (Partec GmbH, Münster, Germany).
• Apoptosis and DNA binding studies […]

BTK = BTK (Homo sapiens, UniProt Q06187); test: Kinase panel screen; type: biochemical; settings: 10 µM compound
From the text: (§2) Figure 7 (see also Table S4) summarizes the results of this assay as a histogram plotting the percentage of the remaining enzyme activity (x-axis) as a function of added lead compound (HL^8: blue trace, 8: red trace) for each of the 50 enzymes assayed (y-axis). […] Thus, the coordination to copper(II) completely changes the kinase inhibition profile of HL^8.
(§3) Figure 7 Screening of HL^8 and 8 against 50 enzymes: histogram with % remaining activity on the x-axis plotted against the compound identifier (blue trace: HL^8 and red trace: 8) and enzyme identifier on the […]. The screen was carried out at a compound concentration of 10 μM, an enzyme concentration of 50 nM, and an ATP concentration of 100 μM.
(§4) All kinase assays were carried out using Multidrop 384’s at room temperature in a total assay volume of 25.5 μL. To plates containing 0.5 μL of HL^8 and 8, DMSO control or acid blank […], 15 μL of an enzyme mix containing enzyme […], and excess peptide/protein substrate in buffer was added. Compounds were pre-incubated in the presence of the enzyme and peptide/protein substrate for 5 min before initiation of the reaction by addition of 10 μL of ATP (final concentration selected for each kinase at 5, 20, or 50 μM). Assays were carried out for 30 min at room temperature before termination by the addition of 5 μL of orthophosphoric acid. The assay plates were then harvested onto P81 Unifilter Plates by a PerkinElmer Harvester and air dried. The dry Unifilter plates were then sealed on the addition of MicroScint O and were counted in PerkinElmer Topcount scintillation counters.

CK2 = CK2 (Homo sapiens, UniProt P68400); test: Kinase panel screen; type: biochemical; settings: 10 µM compound
From the text: as §2, §3, §4

DYRK1A = DYRK1A (Homo sapiens, UniProt Q13627); test: Kinase panel screen; type: biochemical; settings: 10 µM compound
From the text: as §2, §3, §4

LKB1 = LKB1 (Homo sapiens, UniProt Q15831); test: Kinase panel screen; type: biochemical; settings: 10 µM compound
From the text: as §2, §3, §4

MKK1 = MKK1 (Homo sapiens, UniProt Q02750); test: Kinase panel screen; type: biochemical; settings: 10 µM compound
From the text: as §2, §3, §4

MLK3 = MLK3 (Homo sapiens, UniProt Q16584); test: Kinase panel screen; type: biochemical; settings: 10 µM compound
From the text: as §2, §3, §4

MST2 = MST2 (Homo sapiens, UniProt Q13188); test: Kinase panel screen; type: biochemical; settings: 10 µM compound
From the text: as §2, §3, §4

PDK1 = PDK1 (Homo sapiens, UniProt O15530); test: Kinase panel screen; type: biochemical; settings: 10 µM compound
From the text: as §2, §3, §4

PKBa = PKBa (Homo sapiens, UniProt P31749); test: Kinase panel screen; type: biochemical; settings: 10 µM compound
From the text: as §2, §3, §4

PKD1 = PKD1 (Homo sapiens, UniProt Q15139); test: Kinase panel screen; type: biochemical; settings: 10 µM compound
From the text: as §2, §3, §4

PRK2 = PRK2 (Homo sapiens, UniProt Q16513); test: Kinase panel screen; type: biochemical; settings: 10 µM compound
From the text: as §2, §3, §4

SRPK1 = SRPK1 (Homo sapiens, UniProt Q96SB4); test: Kinase panel screen; type: biochemical; settings: 10 µM compound
From the text: as §2, §3, §4

SYK = SYK (Homo sapiens, UniProt P43405); test: Kinase panel screen; type: biochemical; settings: 10 µM compound
From the text: as §2, §3, §4

Src = Src (Homo sapiens, UniProt P12931); test: Kinase panel screen; type: biochemical; settings: 10 µM compound
From the text: as §2, §3, §4

TrkA = TrkA (Homo sapiens, UniProt P04629); test: Kinase panel screen; type: biochemical; settings: 10 µM compound
From the text: as §2, §3, §4

Chain of LKB1 (Q15831 whole entry): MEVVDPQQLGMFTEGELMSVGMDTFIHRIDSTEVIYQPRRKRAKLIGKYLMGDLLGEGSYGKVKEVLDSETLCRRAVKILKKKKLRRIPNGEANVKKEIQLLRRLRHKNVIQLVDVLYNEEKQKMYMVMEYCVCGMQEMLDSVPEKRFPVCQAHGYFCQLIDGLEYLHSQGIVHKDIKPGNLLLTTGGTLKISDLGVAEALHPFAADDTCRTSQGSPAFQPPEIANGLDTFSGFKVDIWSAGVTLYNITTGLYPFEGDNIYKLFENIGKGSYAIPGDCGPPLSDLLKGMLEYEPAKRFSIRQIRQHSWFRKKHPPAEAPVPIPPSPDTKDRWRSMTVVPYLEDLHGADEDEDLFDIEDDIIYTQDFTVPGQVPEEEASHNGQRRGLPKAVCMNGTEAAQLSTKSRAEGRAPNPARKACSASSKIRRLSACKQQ
Chain of LKB1 (Q7RTN6 whole entry partner): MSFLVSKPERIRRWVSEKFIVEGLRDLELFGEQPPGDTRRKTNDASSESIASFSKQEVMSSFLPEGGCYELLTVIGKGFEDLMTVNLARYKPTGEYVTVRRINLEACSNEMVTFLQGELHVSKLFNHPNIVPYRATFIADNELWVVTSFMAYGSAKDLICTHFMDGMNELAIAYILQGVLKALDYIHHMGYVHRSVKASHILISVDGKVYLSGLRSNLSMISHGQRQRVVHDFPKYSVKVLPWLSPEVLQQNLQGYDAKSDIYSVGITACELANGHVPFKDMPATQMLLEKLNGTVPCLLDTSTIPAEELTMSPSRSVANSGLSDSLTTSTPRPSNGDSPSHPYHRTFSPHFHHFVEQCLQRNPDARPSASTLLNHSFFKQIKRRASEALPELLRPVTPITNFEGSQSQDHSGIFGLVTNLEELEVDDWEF
Chain of LKB1 (Q9Y376 whole entry partner): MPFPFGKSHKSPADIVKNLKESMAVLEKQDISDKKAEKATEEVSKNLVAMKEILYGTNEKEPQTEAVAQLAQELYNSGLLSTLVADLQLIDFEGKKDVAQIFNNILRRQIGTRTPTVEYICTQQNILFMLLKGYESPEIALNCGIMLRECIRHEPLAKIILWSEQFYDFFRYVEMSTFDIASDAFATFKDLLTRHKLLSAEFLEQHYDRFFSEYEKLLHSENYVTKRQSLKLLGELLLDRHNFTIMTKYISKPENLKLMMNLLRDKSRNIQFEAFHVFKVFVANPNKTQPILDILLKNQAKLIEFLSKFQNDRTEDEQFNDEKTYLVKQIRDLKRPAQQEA
Chain of Src (P12931 whole entry): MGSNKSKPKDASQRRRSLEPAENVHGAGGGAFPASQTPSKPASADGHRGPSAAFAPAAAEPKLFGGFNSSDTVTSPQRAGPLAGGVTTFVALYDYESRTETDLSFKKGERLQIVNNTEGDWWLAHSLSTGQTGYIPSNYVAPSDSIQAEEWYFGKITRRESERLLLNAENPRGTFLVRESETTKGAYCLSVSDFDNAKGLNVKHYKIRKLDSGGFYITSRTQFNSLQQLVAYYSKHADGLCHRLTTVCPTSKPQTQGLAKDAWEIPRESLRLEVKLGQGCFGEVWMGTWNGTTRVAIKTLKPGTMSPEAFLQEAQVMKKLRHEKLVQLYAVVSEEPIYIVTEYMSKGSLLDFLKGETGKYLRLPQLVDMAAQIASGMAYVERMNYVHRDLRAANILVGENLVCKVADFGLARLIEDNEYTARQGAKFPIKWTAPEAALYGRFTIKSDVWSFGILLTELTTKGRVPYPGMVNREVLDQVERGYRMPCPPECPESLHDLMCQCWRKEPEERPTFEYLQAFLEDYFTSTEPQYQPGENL
Chain of SRPK1 (Q96SB4 whole entry): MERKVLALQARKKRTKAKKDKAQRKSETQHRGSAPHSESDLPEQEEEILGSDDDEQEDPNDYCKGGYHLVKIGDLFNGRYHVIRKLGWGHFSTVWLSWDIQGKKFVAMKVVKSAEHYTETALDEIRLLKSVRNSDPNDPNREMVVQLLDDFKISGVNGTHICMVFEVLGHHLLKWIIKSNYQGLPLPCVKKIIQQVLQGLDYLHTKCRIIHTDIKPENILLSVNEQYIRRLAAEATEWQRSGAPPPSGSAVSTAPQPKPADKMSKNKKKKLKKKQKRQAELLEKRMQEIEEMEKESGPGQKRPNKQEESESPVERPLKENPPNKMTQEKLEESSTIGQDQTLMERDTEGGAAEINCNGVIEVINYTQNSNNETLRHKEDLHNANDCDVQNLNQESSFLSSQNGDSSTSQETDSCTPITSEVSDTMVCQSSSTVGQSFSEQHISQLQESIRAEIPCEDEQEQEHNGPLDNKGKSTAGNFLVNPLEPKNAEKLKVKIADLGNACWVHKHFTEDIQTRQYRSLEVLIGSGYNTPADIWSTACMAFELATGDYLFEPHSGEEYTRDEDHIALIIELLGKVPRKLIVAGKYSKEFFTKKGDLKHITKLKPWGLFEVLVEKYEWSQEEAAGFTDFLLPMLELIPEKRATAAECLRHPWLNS
Chain of BTK (Q06187 whole entry): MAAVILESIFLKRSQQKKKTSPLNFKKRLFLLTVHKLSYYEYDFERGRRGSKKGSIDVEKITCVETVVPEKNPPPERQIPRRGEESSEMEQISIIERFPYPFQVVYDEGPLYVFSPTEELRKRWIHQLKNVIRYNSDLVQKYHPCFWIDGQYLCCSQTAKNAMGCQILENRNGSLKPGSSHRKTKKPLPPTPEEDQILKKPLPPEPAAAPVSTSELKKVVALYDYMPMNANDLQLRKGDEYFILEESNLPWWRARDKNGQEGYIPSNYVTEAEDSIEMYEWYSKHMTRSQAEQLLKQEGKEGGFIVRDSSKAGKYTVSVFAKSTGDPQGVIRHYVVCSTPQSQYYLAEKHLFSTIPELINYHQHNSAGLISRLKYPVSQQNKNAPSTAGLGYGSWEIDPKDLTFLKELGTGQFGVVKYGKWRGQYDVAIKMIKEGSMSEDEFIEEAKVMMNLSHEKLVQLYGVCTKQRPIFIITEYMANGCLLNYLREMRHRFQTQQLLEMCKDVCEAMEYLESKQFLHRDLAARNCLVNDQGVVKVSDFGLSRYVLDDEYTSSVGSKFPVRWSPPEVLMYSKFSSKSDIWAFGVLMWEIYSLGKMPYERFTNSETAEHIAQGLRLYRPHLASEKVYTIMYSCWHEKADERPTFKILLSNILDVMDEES
Chain of PRK2 (Q16513 whole entry): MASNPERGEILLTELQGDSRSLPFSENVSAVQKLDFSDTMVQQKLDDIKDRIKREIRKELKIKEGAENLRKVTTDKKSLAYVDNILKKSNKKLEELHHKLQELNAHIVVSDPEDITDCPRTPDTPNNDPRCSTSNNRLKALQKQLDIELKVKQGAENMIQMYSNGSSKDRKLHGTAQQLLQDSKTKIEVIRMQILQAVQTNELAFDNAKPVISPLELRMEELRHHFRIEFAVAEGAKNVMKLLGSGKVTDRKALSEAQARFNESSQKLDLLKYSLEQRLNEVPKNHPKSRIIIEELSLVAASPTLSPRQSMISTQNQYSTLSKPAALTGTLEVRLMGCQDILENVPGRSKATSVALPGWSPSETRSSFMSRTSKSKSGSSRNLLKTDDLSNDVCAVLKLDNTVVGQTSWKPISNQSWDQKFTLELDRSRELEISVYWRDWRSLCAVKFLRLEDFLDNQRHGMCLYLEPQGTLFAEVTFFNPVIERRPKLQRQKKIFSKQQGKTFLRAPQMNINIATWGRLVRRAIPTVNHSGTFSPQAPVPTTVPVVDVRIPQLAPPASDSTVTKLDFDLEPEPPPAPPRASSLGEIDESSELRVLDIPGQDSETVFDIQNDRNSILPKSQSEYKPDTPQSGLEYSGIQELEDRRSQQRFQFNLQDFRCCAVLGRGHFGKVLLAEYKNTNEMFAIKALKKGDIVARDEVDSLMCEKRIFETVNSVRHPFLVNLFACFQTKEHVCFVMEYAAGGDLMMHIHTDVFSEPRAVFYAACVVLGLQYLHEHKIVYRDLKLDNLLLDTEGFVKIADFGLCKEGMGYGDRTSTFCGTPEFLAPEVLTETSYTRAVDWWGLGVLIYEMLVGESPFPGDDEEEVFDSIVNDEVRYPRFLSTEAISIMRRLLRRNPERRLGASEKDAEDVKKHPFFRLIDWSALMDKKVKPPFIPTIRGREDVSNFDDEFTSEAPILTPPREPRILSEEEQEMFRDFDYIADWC
Chain of PKD1 (Q15139 whole entry): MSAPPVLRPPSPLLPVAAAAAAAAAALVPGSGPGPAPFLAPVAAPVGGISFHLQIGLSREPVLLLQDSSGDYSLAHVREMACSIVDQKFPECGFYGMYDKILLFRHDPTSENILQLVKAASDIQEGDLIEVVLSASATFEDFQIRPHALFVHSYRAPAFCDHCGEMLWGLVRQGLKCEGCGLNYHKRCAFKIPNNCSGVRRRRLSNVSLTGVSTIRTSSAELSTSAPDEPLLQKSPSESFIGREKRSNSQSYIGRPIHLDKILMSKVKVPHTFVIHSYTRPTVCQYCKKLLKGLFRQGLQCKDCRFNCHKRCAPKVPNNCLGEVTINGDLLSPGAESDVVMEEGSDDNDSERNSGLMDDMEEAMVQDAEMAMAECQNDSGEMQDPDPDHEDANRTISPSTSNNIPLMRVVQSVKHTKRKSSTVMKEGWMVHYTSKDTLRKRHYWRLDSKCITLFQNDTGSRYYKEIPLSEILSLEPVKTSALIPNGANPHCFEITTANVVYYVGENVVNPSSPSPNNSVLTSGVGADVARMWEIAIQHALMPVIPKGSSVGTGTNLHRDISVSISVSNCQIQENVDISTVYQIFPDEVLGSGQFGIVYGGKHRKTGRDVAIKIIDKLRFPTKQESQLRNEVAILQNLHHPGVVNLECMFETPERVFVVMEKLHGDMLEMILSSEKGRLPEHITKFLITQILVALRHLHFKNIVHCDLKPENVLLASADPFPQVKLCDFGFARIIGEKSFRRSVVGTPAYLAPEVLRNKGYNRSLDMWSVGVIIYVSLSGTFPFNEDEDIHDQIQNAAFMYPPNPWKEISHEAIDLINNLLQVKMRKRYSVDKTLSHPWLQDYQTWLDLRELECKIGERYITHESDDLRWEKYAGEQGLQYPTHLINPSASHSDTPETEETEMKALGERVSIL

Compound: CC(=NNC1=NCc2ccccc2-c2c1[nH]c1ccc(Br)cc21)c1ccc(CN2CCOCC2)cn1.[Cl][Cu][Cl] [compound 4, CuCl2(HL^4)·0.5H2O]
- Behaviour in buffer solutions over time [1]: slow precipitation
- Behaviour in blood serum diluted by factor 3 [2]: a similar behavior was observed, even though changes were smaller
- Cell death % Q1 (Colo320 cells; 0.25 µM): 5.10%
- Early apoptosis % Q3 (Colo320 cells; 0.25 µM): 7.48%
- Late apoptosis and necrosis % Q2 (Colo320 cells; 0.25 µM): 12.7%
- Cell death % Q1 (Colo320 cells; 0.5 µM): 4.76%
- Early apoptosis % Q3 (Colo320 cells; 0.5 µM): 5.18%
- Late apoptosis and necrosis % Q2 (Colo320 cells; 0.5 µM): 11.6%

Compound: CC(=NNc1nc2ccccc2c2c1[nH]c1ccc(Br)cc12)c1ccc(CN2CCOCC2)cn1.[Cl][Cu][Cl] [compound 8, CuCl2(HL^8)·H2O]
- Behaviour in buffer solutions over time [1]: slow precipitation
- Behaviour in blood serum diluted by factor 3 [2]: partial decomposition of the complex
- Cell death % Q1 (Colo320 cells; 0.5 µM): 4.52%
- Early apoptosis % Q3 (Colo320 cells; 0.5 µM): 6.01%
- Late apoptosis and necrosis % Q2 (Colo320 cells; 0.5 µM): 12.1%
- Cell death % Q1 (Colo320 cells; 2 µM): 1.76%
- Early apoptosis % Q3 (Colo320 cells; 2 µM): 6.91%
- Late apoptosis and necrosis % Q2 (Colo320 cells; 2 µM): 6.97%
- % remaining activity (BTK): 61%
- % remaining activity (CK2): 79%
- % remaining activity (DYRK1A): 77%
- % remaining activity (LKB1): 107%
- % remaining activity (MKK1): 94%
- % remaining activity (MLK3): 41%
- % remaining activity (MST2): 82%
- % remaining activity (PDK1): 121%
- % remaining activity (PKBa): 82%
- % remaining activity (PKD1): 65%
- % remaining activity (PRK2): 38%
- % remaining activity (SRPK1): 40%
- % remaining activity (SYK): 39%
- % remaining activity (Src): 125%
- % remaining activity (TrkA): 82%

— paper PMC8842277, “Highly Antiproliferative Latonduine and Indolo[2,3-c]quinoline Derivatives: Complex Formation with Copper(II) Markedly Changes the Kinase Inhibitory Profile” (Journal of Medicinal Chemistry, 2022)
